Test results from ChEMBL document CHEMBL1124513, “Synthesis and antitumor activity of ribavirin imidates. A new facile synthesis of ribavirin amidine (1-beta-D-ribofuranosyl-1,2,4-triazole-3-carboxamidine hydrochloride)” (J Med Chem, 1989).
Values joined by “and” are separate entries in the source; they are usually repeats but may differ in a detail not shown here. Equal values may be shown once.

Assays:
[1] = test system: Mus musculus; test: Post inoculation life span in L1210 leukemic mice treated with 480 mg/kg of compound (qd, day 1); Tested in 6 mice; type: functional
[2] = test system: L1210; test: Residual leukemic cell populations after last treatment in L1210 leukemic mice treated with 2222 mg/kg of compound (qd, day 1); Toxic; type: toxicity, organism-based; set-up: dose 2222 mg/kg; details: mouse, in vivo
[3] = test system: Mus musculus; test: Post inoculation life span in L1210 leukemic mice treated with 2222 mg/kg of compound (qd, day 1); Tested in 6 mice; type: functional
[4] = test system: Mus musculus; test: Compound was evaluated for leukemia related splenomegaly in DBA2 mice spleen weight was determined ~ 24 hour after the last treatment at schedule of administration = qd, day 1,3, 5, 7, 9, 11 at a dose 1333 mg/kg; Toxic; type: ADME, organism-based; set-up: dose 1333 mg/kg; details: in vivo
[5] = test system: L1210; test: (§1) Residual leukemic cell populations after last treatment in L1210 leukemic mice treated with 800 mg/kg of compound (qd, day 1); type: functional, Mus musculus
[6] = test system: Mus musculus; test: Post inoculation life span in L1210 leukemic mice treated with 1333 mg/kg of compound (qd, day 1); type: functional
[7] = test system: Mus musculus; test: Compound was evaluated for leukemia related splenomegaly in DBA2 mice spleen weight was determined ~ 24 hour after the last treatment at schedule of administration = qd, day 1,3, 5, 7, 9, 11 at a dose 800 mg/kg; Toxic; type: ADME, organism-based; set-up: dose 800 mg/kg; details: in vivo
[8] = test system: L1210; test: Residual leukemic cell populations after last treatment in L1210 leukemic mice treated with 1333 mg/kg of compound (qd, day 1); type: functional, Mus musculus
[9] = test system: L1210; test: as §1; type: functional, Mus musculus; remark: listed apart in the source
[10] = test system: Mus musculus; test: Post inoculation life span in L1210 leukemic mice treated with 288 mg/kg of compound (qd, day 1); Tested in 6 mice; type: functional
[11] = test system: L1210; test: Residual leukemic cell populations after last treatment in L1210 leukemic mice treated with 288 mg/kg of compound (qd, day 1-7); type: functional, Mus musculus
[12] = test system: Mus musculus; test: Post inoculation life span in L1210 leukemic mice treated with 288 mg/kg of compound (qd, day 1-7); Tested in 6 mice; type: functional
[13] = test system: Mus musculus; test: Compound was evaluated for leukemia related splenomegaly in DBA2 mice spleen weight was determined ~ 24 hour after the last treatment at schedule of administration = qd, day 1,3, 5, 7, 9, 11 at a dose 480 mg/kg; type: functional
[14] = test system: L1210; test: Residual leukemic cell populations after last treatment in L1210 leukemic mice treated with 800 mg/kg of compound (qd, day 1-7); Toxic; type: toxicity, organism-based; set-up: dose 800 mg/kg; details: mouse, in vivo
[15] = test system: Mus musculus; test: Post inoculation life span in L1210 leukemic mice treated with 3704 mg/kg of compound (qd, day 1); Tested in 6 mice; type: functional
[16] = test system: L1210; test: Residual leukemic cell populations after last treatment in L1210 leukemic mice treated with 3704 mg/kg of compound (qd, day 1); Toxic; type: toxicity, organism-based; set-up: dose 3704 mg/kg; details: mouse, in vivo
[17] = test system: Mus musculus; test: Post inoculation life span in L1210 leukemic mice treated with 800 mg/kg of compound (qd, day 1-7); Tested in 6 mice; type: functional
[18] = test system: L1210; test: Residual leukemic cell populations after last treatment in L1210 leukemic mice treated with 400 mg/kg of compound (qd, day 1); type: functional, Mus musculus
[19] = test system: Mus musculus; test: Post inoculation life span in L1210 leukemic mice treated with 480 mg/kg of compound (qd, day 1-7); Tested in 6 mice; type: functional
[20] = test system: L1210; test: Residual leukemic cell populations after last treatment in L1210 leukemic mice treated with 288 mg/kg of compound (qd, day 1); type: functional, Mus musculus
[21] = test system: L1210; test: Residual leukemic cell populations after last treatment in L1210 leukemic mice treated with 488 mg/kg of compound (qd, day 1-7); Toxic; type: toxicity, organism-based; set-up: dose 488 mg/kg; details: mouse, in vivo
[22] = test system: Mus musculus; test: Post inoculation life span in L1210 leukemic mice treated with 800 mg/kg of compound (qd, day 1); Tested in 6 mice; type: functional
[23] = test system: Mus musculus; test: (§2) Post inoculation life span in L1210 leukemic mice treated with 480 mg/kg of compound (qd, day 1-7); type: functional
[24] = test system: L1210; test: Residual leukemic cell populations after last treatment in L1210 leukemic mice treated with 480 mg/kg of compound (bid, day 1); type: functional, Mus musculus
[25] = test system: L1210; test: (§3) Residual leukemic cell populations after last treatment in L1210 leukemic mice treated with 480 mg/kg of compound (qd, day 1); type: functional, Mus musculus
[26] = test system: Mus musculus; test: Compound was evaluated for leukemia related splenomegaly in DBA2 mice spleen weight was determined ~ 24 hour after the last treatment at schedule of administration at bid, day 1,3, 5, 7, 9, 11 at a dose 288 mg/kg; type: functional
[27] = test system: Mus musculus; test: Post inoculation life span in L1210 leukemic mice treated with 480 mg/kg of compound (tid, day 1,3,5,7); type: functional
[28] = test system: L1210; test: Residual leukemic cell populations after last treatment in L1210 leukemic mice treated with 480 mg/kg of compound (tid, day 1,3,5,7); Toxic; type: toxicity, organism-based; set-up: dose 480 mg/kg; details: mouse, in vivo
[29] = test system: Mus musculus; test: Compound was evaluated for leukemia related splenomegaly in DBA2 mice spleen weight was determined ~ 24 hour after the last treatment at schedule of administration at qd, day 1,3, 5, 7, 9, 11 at a dose 288 mg/kg; type: functional
[30] = test system: Mus musculus; test: Post inoculation life span in L1210 leukemic mice treated with 480 mg/kg of compound (qd, day 1,3,5,7); type: functional
[31] = test system: Mus musculus; test: Compound was evaluated for leukemia related splenomegaly in DBA2 mice spleen weight was determined ~ 24 hour after the last treatment at schedule of administration = qd, day 1,3, 5, 7, 9, 11 at a dose 400 mg/kg; type: functional
[32] = test system: L1210; test: as §3; type: functional, Mus musculus; remark: listed apart in the source
[33] = test system: Mus musculus; test: Post inoculation life span in L1210 leukemic mice treated with 480 mg/kg of compound (qd, day 1,4,7); type: functional
[34] = test system: Mus musculus; test: Post inoculation life span in L1210 leukemic mice treated with 480 mg/kg of compound (bid, day 1-7); type: functional
[35] = test system: Mus musculus; test: Post inoculation life span in L1210 leukemic mice treated with 480 mg/kg of compound (tid, day 1); type: functional
[36] = test system: Mus musculus; test: Post inoculation life span in L1210 leukemic mice treated with 480 mg/kg of compound (bid, day 1,3,5,7); type: functional
[37] = test system: Mus musculus; test: Post inoculation life span in L1210 leukemic mice treated with 480 mg/kg of compound (bid, day 1); type: functional
[38] = test system: L1210; test: Residual leukemic cell populations after last treatment in L1210 leukemic mice treated with 480 mg/kg of compound (tid, day 1); type: functional, Mus musculus
[39] = test system: Mus musculus; test: Post inoculation life span in L1210 leukemic mice treated with 480 mg/kg of compound (tid, day 1-7); type: functional
[40] = test system: Mus musculus; test: Post inoculation life span in L1210 leukemic mice treated with 480 mg/kg of compound (qid, day 1); type: functional
[41] = test system: Mus musculus; test: Compound was evaluated for leukemia related splenomegaly in DBA2 mice spleen weight was determined ~ 24 hour after the last treatment at schedule of administration at bid, day 1,3, 5, 7, 9, 11 at a dose 400 mg/kg; Toxic; type: ADME, organism-based; set-up: dose 400 mg/kg; details: in vivo
[42] = test system: L1210; test: Residual leukemic cell populations after last treatment in L1210 leukemic mice treated with 480 mg/kg of compound (tid, day 1-7); Toxic; type: functional, organism-based; set-up: dose 480 mg/kg; details: Mus musculus
[43] = test system: L1210; test: Residual leukemic cell populations after last treatment in L1210 leukemic mice treated with 480 mg/kg of compound (bid, day 1-7); Toxic; type: toxicity, organism-based; set-up: dose 480 mg/kg; details: mouse, in vivo
[44] = test system: L1210; test: Residual leukemic cell populations after last treatment in L1210 leukemic mice treated with 480 mg/kg of compound (qid, day 1); Toxic; type: toxicity, organism-based; set-up: dose 480 mg/kg; details: mouse, in vivo
[45] = test system: L1210; test: Residual leukemic cell populations after last treatment in L1210 leukemic mice treated with 480 mg/kg of compound (qd, day 1,4,7); type: functional, Mus musculus
[46] = test system: Mus musculus; test: as §2; type: functional; remark: listed apart in the source
[47] = test system: Mus musculus; test: (§4) Post inoculation life span in L1210 leukemic mice treated with 480 mg/kg of compound (qd, day 1); type: functional
[48] = test system: L1210; test: Residual leukemic cell populations after last treatment in L1210 leukemic mice treated with 480 mg/kg of compound (bid, day 1,3,5,7); type: functional, Mus musculus
[49] = test system: L1210; test: Residual leukemic cell populations after last treatment in L1210 leukemic mice treated with 480 mg/kg of compound (qd, day 1,3,5,7); type: functional, Mus musculus
[50] = test system: Mus musculus; test: as §4; type: functional; remark: listed apart in the source

Q: What does the source list for `CCOC(=N)c1ncn(C2O[C@H](CO)[C@@H](O)[C@H]2O)n1` (stereo not given in full)?
A: T/C [1]: 149%; Control [2]: Toxic; T/C [3]: 92%; Spleen weight [4]: Toxic; Control [5]: 0.4%; T/C [6]: 149%; Spleen weight [7]: Toxic; Control [8]: 1.3%; Control [9]: 1.7%; T/C [10]: 114%; Control [11]: 27%; T/C [12]: 144%; Spleen weight [13]: 1257 mg; Control [14]: Toxic; T/C [15]: 48%; Control [16]: Toxic; T/C [17]: 70%; Control [18]: 1.1%; T/C [19]: 134%; Control [20]: 1.7%; Control [21]: Toxic; T/C [22]: 159% and 144%

Q: For `COC(=N)c1ncn([C@@H]2O[C@H](CO)[C@@H](O)[C@H]2O)n1`, which T/C [23] is on record?
A: 162% and 97%

Q: What about the Control [24] of the same molecule?
A: 9%

Q: What about the Control [25] of the same molecule?
A: 32%

Q: What about the Spleen weight [26] of the same molecule?
A: 150 mg

Q: And the T/C [27]?
A: 76%

Q: What about the Control [28] of the same molecule?
A: Toxic

Q: What about the Spleen weight [29] of the same molecule?
A: 599 mg

Q: What about the T/C [30] of the same molecule?
A: 121%

Q: And the Spleen weight [31]?
A: 216 mg

Q: What about the Control [32] of the same molecule?
A: 30% and 21%

Q: What about the T/C [33] of the same molecule?
A: 119%

Q: What about the T/C [34] of the same molecule?
A: 101%

Q: What about the T/C [35] of the same molecule?
A: 153%

Q: And the T/C [36]?
A: 162%

Q: What about the T/C [37] of the same molecule?
A: 125%

Q: And the Control [38]?
A: 0.6%

Q: And the T/C [39]?
A: 61%

Q: What about the T/C [40] of the same molecule?
A: 60%

Q: And the Spleen weight [41]?
A: Toxic

Q: What about the Control [42] of the same molecule?
A: Toxic

Q: What about the Control [43] of the same molecule?
A: Toxic

Q: What about the Control [44] of the same molecule?
A: Toxic

Q: And the Control [45]?
A: 73%

Q: And the T/C [46]?
A: 142%

Q: What about the T/C [47] of the same molecule?
A: 113% and 116%

Q: What about the Control [48] of the same molecule?
A: 12%

Q: And the Control [49]?
A: 46%

Q: And the T/C [50]?
A: 114%
